Experimental data as given in US11440906B2, “Biguanide derivatives and their rearrangement products for use in the treatment of cancer” (CENTRE NATIONAL DE LA RECHERCHE SCIENTIFIQUE, priority 2017, dated 2022).
Where two headings read alike, the source gives them in different places.

Tested on: A375 Sensitive cells
Assay: Viability test, trypan blue exclusion, A375 Sensitive cells
Format: cell-based, human
Settings: Homo sapiens, A-375, viable cells as percentage of DMSO control
Description: Different melanoma cell lines were purchased from the American Tissue Culture Collection: A375 and WM9 cells are mutated on B-Raf, CDKN2A and PTEN proteins; SKmel28 cells are mutated on B-Raf and P53 proteins; 1205Lu cells are mutated on B-Raf and PTEN proteins; G-361 cells are mutated on B-Raf and CDKN2A proteins; C8161 cells are mutated on B-Raf and K-Ras proteins; WM3912 cells are mutated on B-Raf and CDKN2A proteins; MeWo cells are mutated on P53 and CDKN2A proteins; WM3918 presents no mutations on characteristic proteins.
For trypan blue staining, […] of cells (melanoma and normal human cells) were aseptically transferred to a 1.5 mL clear Eppendorf tube and incubated for 3 min at room temperature with an equal volume of 0.4% trypan blue solution. Viable cells were counted and the results are expressed as the percentage of the value of control cells. All the experiments are performed 3 times in triplicate.
A375 Sensitive cells were treated with different concentrations of the synthesized molecules (5.0 μM or 10 μM) for different times (24 hr or 48 hr) or with DMSO (Control) for 12 or 48 hr. At the end of the stimulation, viable cells were counted using the trypan blue dye exclusion method. The results are normalized as percentages compare to the control.
A375 Sensitive cells were treated with 5 μM of CRO15 for different times (2 hr, 4 hr, 6 hr, 8 hr, 12 hr, 24 hr or 48 hr) or with 5 μM of PLX4032 (B-Raf inhibitor) for 48 hr or with DMSO (Control) for 48 hr. At the end of stimulation, viable cells were counted using the trypan blue dye exclusion method. The results are normalized as percentages compare to the control and data means±SEM of three independent experiments performed in triplicate *p<0.05; **p<0.01; ***p<0.001.
A375 Sensitive cells were treated with different concentrations of CRO15 (0.5 μM, 2.5 μM, 5.0 μM, 7.5 μM, 50 μM) for 48 hr or with 5 μM of PLX4032 (B-Raf inhibitor) for 48 hr or with DMSO (Control) for 48 hr. At the end of the stimulation, viable cells were counted using the trypan blue dye exclusion method. The results are normalized as percentages compare to the control and data means±SEM of three independent experiments performed in triplicate *p<0.05; **p<0.01; ***p<0.001.
A375 sensitive and resistant melanoma cells were treated with 5 μM of CRO15 for 48 hr or with 5 μM of PLX4032 for 48 hr or with DMSO (Control). At 48 hours, viable cells were counted using the trypan blue dye exclusion method. The results are normalized as percentages compare to the control and data means±SEM of three independent experiments performed in triplicate *p<0.05; **p<0.01; ***p<0.001.

[1] = 24 h, read-out: Viab A375 5 μM/ 24 h
[2] = 48 h, read-out: Viab A375 5 μM/ 48 h
[3] = 24 h, read-out: Viab A375 10 μM/ 24 h
[4] = 48 h, read-out: Viab A375 10 μM/ 48 h

Structure (SMILES)	viability at 5 µM [1] [%]	viability at 5 µM [2] [%]	viability at 10 µM [3] [%]	viability at 10 µM [4] [%]
COc1ccc(Nc2nc(N)nc(C(Cl)(Cl)Cl)n2)c(SSc2cc(OC)ccc2Nc2nc(N)nc(C(Cl)(Cl)Cl)n2)c1 [MTF 232, N2,N2′-(disulfanediylbis(4-methoxy-2,1-phenylene))bis(6-(trichloromethyl)-1,3,5-triazine-2,4-diamine)]	83.3	24.9	33.9	16.4 ± 4.9
COc1ccc(-c2nc(N)nc(Nc3ccccc3SSc3ccccc3Nc3nc(N)nc(-c4ccc(OC)cc4)n3)n2)cc1 [MTF 324, N2,N2′-(disulfanediylbis(2,1-phenylene))bis(6-(4-methoxyphenyl)-1,3,5-triazine-2,4-diamine)]	44.1	13.3	12.9	8.2
Nc1nc(Nc2ccccc2SSc2ccccc2Nc2nc(N)nc(-c3c(Br)cncc3Br)n2)nc(-c2c(Br)cncc2Br)n1 [MTF 456, N2,N2′-(disulfanediylbis(2,1-phenylene))bis(6-(3,5-dibromopyridin-4-yl)-1,3,5-triazine-2,4-diamine)]	66.5	87.5	52.3	76.1
Cc1nc(NC(=N)NC(=N)c2cccnc2)sc1C [MTF 298, N—(N-(4,5-dimethylthiazol-2-yl)carbamimidoyl)nicotinimidamide]	97.2	73.6	87.5	54.7
N=C(NC(=N)c1ccccn1)Nc1nc2ccccc2s1 [MTF 251, N—(N-(benzo[d]thiazol-2-yl)carbamimidoyl)picolinimidamide]	48.9	44.7	45.1	19.5
Cc1csc(NC(=N)NC(=N)c2cccnc2)n1 [MTF 290, N—(N-(4-methylthiazol-2-yl)carbamimidoyl)nicotinimidamide]	43.4	21.6	50.5	14.4
N=C(NC(=N)c1cccs1)Nc1nc2ccccc2s1 [MTF 381, N—(N-(benzo[d]thiazol-2-yl)carbamimidoyl)thiophene-2-carboximidamide]	88.3	61.6	90.6	61.4
Nc1nc(Nc2ccccc2SSc2ccccc2Nc2nc(N)nc(-c3cccnc3)n2)nc(-c2cccnc2)n1 [MTF 330, N2,N2′-(disulfanediylbis(2,1-phenylene))bis(6-(pyridin-3-yl)-1,3,5-triazine-2,4-diamine)]	123	73.9	60.1	41.6
Cc1nc(NC(=N)NC(=N)c2ccccc2Br)sc1C [MTF 295, 2-bromo-N—(N-(4,5-dimethylthiazol-2-yl)carbamimidoyl)benzimidamide]	109	37.3	66.1	39.3
COc1ccc(C(=N)NC(=N)Nc2nc3ccccc3s2)cc1 [MTF 254, N—(N-(benzo[d]thiazol-2-yl)carbamimidoyl)-4-methoxybenzimidamide]	100	100	100	100
N=C(NC(=N)c1ncc(Cl)cc1Cl)Nc1nc2ccccc2s1 [MTF 389, N—(N-(benzo[d]thiazol-2-yl)carbamimidoyl)-3,5-dichloropicolinimidamide]	74.6	85.6	75.8	76.4
Cc1csc(NC(=N)NC(=N)c2ccccc2Br)n1 [MTF 287, 2-bromo-N—(N-(4-methylthiazol-2-yl)carbamimidoyl)benzimidamide]	60.9	86.7	53.7	69.5
COc1ccc(C(=N)NC(=N)Nc2nc(-c3ccccc3)cs2)cc1 [MTF 262, 4-methoxy-N—(N-(4-phenylthiazol-2-yl)carbamimidoyl)benzimidamide]	61.4	43.7	40.8	27.3
N=C(NC(=N)c1ccc(Cl)cc1)Nc1nc2ccccc2s1 [MTF 245, N—(N-(benzo[d]thiazol-2-yl)carbamimidoyl)-4-chlorobenzimidamide]	95	100	83	79.6
Cc1nc(NC(=N)NC(=N)c2ccccc2Cl)sc1C [MTF 300, 2-chloro-N—(N-(4,5-dimethylthiazol-2-yl)carbamimidoyl)benzimidamide]	96	60	50.8	35.9
Cc1nc(NC(=N)NC(=N)c2ccncc2)sc1C [MTF 299, N—(N-(4,5-dimethylthiazol-2-yl)carbamimidoyl)isonicotinimidamide]	91.1	76.6	72.8	46.2
Cc1csc(NC(=N)NC(=N)c2ccccc2)n1 [MTF 283, N—(N-(4-methylthiazol-2-yl)carbamimidoyl)benzimidamide]	100	56	100	150
Cc1csc(NC(=N)NC(=N)c2cccc(Cl)c2)n1 [MTF 285, 3-chloro-N—(N-(4-methylthiazol-2-yl)carbamimidoyl)benzimidamide]	45	100	77.8	78.7
N=c1nc(C(Cl)(Cl)Cl)nc(Nc2ccc(Cl)cc2O)[nH]1 [MTF 375]	47.2	29.5	30.9	15.5
Cc1nc(NC(=N)NC(=N)c2cccc(Cl)c2)sc1C [MTF 301, 3-chloro-N—(N-(4,5-dimethylthiazol-2-yl)carbamimidoyl)benzimidamide]	74	47	106	31.6
Nc1nc(Nc2ccccc2SSc2ccccc2Nc2nc(N)nc(-c3ccc4ccccc4c3)n2)nc(-c2ccc3ccccc3c2)n1 [MTF 443, N2,N2′-(disulfanediylbis(2,1-phenylene))bis(6-(naphthalen-2-yl)-1,3,5-triazine-2,4-diamine)]	42.3	10.2	13.8	7.8
N=C(NC(=N)c1ccc(Cl)nc1)Nc1nc2ccccc2s1 [MTF 379, N—(N-(benzo[d]thiazol-2-yl)carbamimidoyl)-6-chloronicotinimidamide]	148	76.9	95.7	86.2
N=C(NC(=N)c1cnccn1)Nc1nc2ccccc2s1 [MTF 345, N—(N-(benzo[d]thiazol-2-yl)carbamimidoyl)pyrazine-2-carboximidamide]	25.9	1.8	17.1	1
Nc1cccc(-c2nc(N)nc(Nc3ccccc3SSc3ccccc3Nc3nc(N)nc(-c4cccc(N)c4)n3)n2)c1 [MTF 460, N2,N2′-(disulfanediylbis(2,1-phenylene))bis(6-(3-aminophenyl)-1,3,5-triazine-2,4-diamine)]	61.9	69.5	64.5	38.6
N=C(NC(=N)c1ccccc1Cl)Nc1nc(-c2cccc([N+](=O)[O-])c2)cs1 [MTF 276, 2-chloro-N—(N-(4-(3-nitrophenyl)thiazol-2-yl)carbamimidoyl)benzimidamide]	91.6	95.3	73.9	64.9
